{
  "source": "paper PMC8944987",
  "about": "“In Vivo Efficacy of SQ109 against Leishmania donovani, Trypanosoma spp. and Toxoplasma gondii and In Vitro Activity of SQ109 Metabolites” (Biomedicines, 2022)",
  "key": {"[1]": {"tested_on": "intracellular L. donovani amastigotes in THP-1", "assay": "L. donovani intracellular amastigotes assay in THP-1 (image based)", "type": "cell-based"}, "[2]": {"assay": "Reported plasma protein binding", "type": "in vitro ADME, mice", "conditions": "from the reported plasma protein binding"}, "[3]": {"set-up": "method as in PMID 16432511", "conditions": "in mice; cited from earlier work"}, "[4]": {"tested_on": "T. gondii tachyzoites of the RH strain", "assay": "T. gondii in vivo mouse model", "set-up": "species or system Webster mice", "conditions": "for survival of T. gondii infected mice: 20 and 50 mg/kg daily for 10 days"}, "[5]": {"tested_on": "L. donovani promastigotes", "assay": "L. donovani promastigotes assay (resazurin)", "type": "cell-based", "conditions": "Leishmania donovani"}, "[6]": {"tested_on": "L. donovani promastigotes", "set-up": "method as in PMID 31897791", "conditions": "cited from earlier work"}},
  "note": "Read-outs that look alike come from different tables or passages of the source.",
  "data": [
    {"smiles": "CC(C)=CCC/C(C)=C/CNCCNC1C2CC3CC(C2)CC1C3", "note": "(stereo not drawn) [SQ109, N-adamantan-2-yl-N’-((E)-3,7-dimethyl-octa-2,6-dienyl)-ethane-1,2-diamine]", "values": [
      {"measurement": "anti-amastigote activity in the current study less than the reported one", "setting": "[1]; L. donovani, THP-1 (this study) versus J774 (ref 10)", "value": "~ 200 fold"},
      {"measurement": "IC50", "setting": "[1]; Leishmania donovani, 72 h, differentiated THP-1 host cells, 3 days of compound incubation, Figure 2F", "value": 1380, "unit": "nM"},
      {"measurement": "free-drug fraction expected in mice plasma", "setting": "[2]", "value": "~ 90%"},
      {"measurement": "plasma protein binding", "setting": "[3]", "value": "5.8–8.5%"},
      {"measurement": "survival / protection of T. gondii infected mice against the initial infection", "setting": "[4]; hypervirulent RH strain, 50 mg/kg i.p.", "value": "Eighty percent"},
      {"measurement": "survival of T. gondii infected mice", "setting": "[4]; i.p., Figure 6B", "value": "50–80%"},
      {"measurement": "survival of T. gondii infected mice", "setting": "[4]; oral gavage, 40 days post-infection, Figure 6C", "value": "30–40%"},
      {"measurement": "animals surviving the re-challenge at day 42", "setting": "[4]; treated with 20 mg/kg/day", "value": "4 out of 6"},
      {"measurement": "outcome of the re-challenge at 42 days, in words", "setting": "[4]; treated with 50 mg/kg/day", "value": "all died with the challenge"},
      {"measurement": "EC50", "setting": "[5]; promastigotes, read-out: L. donovani EC50 (PRO)", "value": 280, "unit": "nM"},
      {"measurement": "IC50", "setting": "[5]; 72 h, Figure 2E, read-out: IC50, L. donovani promastigote growth", "value": 175, "unit": "nM"},
      {"measurement": "IC50", "setting": "[6]", "value": 630, "unit": "nM"}
    ]}
  ]
}
